Test results taken from publication PMC3095510 (Biomacromolecules, 2011).
Ends that are not written are not given here.

System: anthrax lethal toxin (PA and LF), RAW264.7 cells

HTSTYWWLDGAP
concentration up to which cytotoxicity was not inhibited: > 2000 µM
